From patent US11053204B2, “Pyrimidinyloxy benzene derivatives as herbicides” (FMC Corporation, priority 2015, dated 2021)

Experiments:
Assay type in all cases: in vivo
[1] = tested on: Italian ryegrass (Lolium multiflorum); assay: Test A preemergence, visual injury rating
How it was run: (§1)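 Visual 0–100 rating (100 = complete control) taken about 10 d post-treatment relative to untreated checks. Preemergence: directed soil spray on sown loam/sand pots. Postemergence: seedlings 2–10 cm, 1–2 leaf. Non-phytotoxic solvent formulation with surfactant.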

[2] = tested on: barnyardgrass (Echinochloa crus-galli); assay: Test A preemergence, visual injury rating
How it was run: as §1

[3] = tested on: giant foxtail (Setaria faberii); assay: Test A preemergence, visual injury rating
How it was run: as §1

[4] = tested on: kochia (Kochia scoparia); assay: Test A preemergence, visual injury rating
How it was run: as §1

[5] = tested on: pigweed (Amaranthus retroflexus); assay: Test A preemergence, visual injury rating
How it was run: as §1

[6] = tested on: ragweed (common ragweed, Ambrosia elatior); assay: Test A preemergence, visual injury rating
How it was run: as §1

[7] = tested on: Italian ryegrass (Lolium multiflorum); assay: Test A postemergence, visual injury rating
How it was run: as §1

[8] = tested on: barnyardgrass (Echinochloa crus-galli); assay: Test A postemergence, visual injury rating; settings: 0 is no effect, 100 is complete control; for Barnyardgrass plant response rating: 0 to 100 scale, approximately 10 days
How it was run: as §1

[9] = tested on: blackgrass (Alopecurus myosuroides); assay: Test A postemergence, visual injury rating
How it was run: as §1

[10] = tested on: corn (Zea mays); assay: Test A postemergence, visual injury rating
How it was run: as §1

[11] = tested on: galium (catchweed bedstraw, Galium aparine); assay: Test A postemergence, visual injury rating
How it was run: as §1

[12] = tested on: giant foxtail (Setaria faberii); assay: Test A postemergence, visual injury rating
How it was run: as §1

[13] = tested on: kochia (Kochia scoparia); assay: Test A postemergence, visual injury rating
How it was run: as §1

[14] = tested on: pigweed (Amaranthus retroflexus); assay: Test A postemergence, visual injury rating
How it was run: as §1

[15] = tested on: ragweed (common ragweed, Ambrosia elatior); assay: Test A postemergence, visual injury rating
How it was run: as §1

[16] = tested on: wheat (Triticum aestivum); assay: Test A postemergence, visual injury rating
How it was run: as §1

[17] = tested on: barnyardgrass (Echinochloa crus-galli); assay: Test B flooded paddy test, plant response rating; settings: 250 g ai/ha; Flood; scale of 0 to 100 where 0 is no effect and 100 is complete control; 13 to 15 days
How it was run: (§2)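 In-water treatment: compound dosed into 3 cm flood over soil, water level unchanged throughout. Controls run alongside; visual assessment at day 13–15.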

[18] = tested on: ducksalad (Heteranthera limosa); assay: Test B flooded paddy test, plant response rating; settings: 250 g ai/ha; Flood; scale of 0 to 100 where 0 is no effect and 100 is complete control; 13 to 15 days
How it was run: as §2

[19] = tested on: rice (Oryza sativa); assay: Test B flooded paddy test, plant response rating; settings: 250 g ai/ha; Flood; scale of 0 to 100 where 0 is no effect and 100 is complete control; 13 to 15 days
How it was run: as §2

[20] = tested on: sedge, umbrella (small-flower umbrella sedge, Cyperus difformis); assay: Test B flooded paddy test, plant response rating; settings: 250 g ai/ha; Flood; scale of 0 to 100 where 0 is no effect and 100 is complete control; 13 to 15 days
How it was run: as §2

[21] = 31 g ai/ha, 0 to 100 scale, 0 no effect, 100 complete control
[22] = 125 g ai/ha, 0 to 100 scale (0 no effect, 100 complete control)
[23] = 31 g ai/ha, 0 to 100 scale, 0 is no effect, 100 is complete control, approximately 10 days
[24] = 125 g ai/ha, 0 to 100 scale, 0 is no effect, 100 is complete control, approximately 10 days
[25] = 31 g ai/ha, 0 to 100 scale (0 no effect, 100 complete control)
[26] = 125 g ai/ha, 0 is no effect, 100 is complete control

O=C(OCC(F)(F)C(F)F)c1c(Br)cccc1Oc1ncc(Cl)cn1 [Compound 103]
Plant response rating, Ryegrass, Italian [1, 21]: 0
Plant response rating, Ryegrass, Italian [1, 22]: 0
Plant response rating, Barnyardgrass [2, 21]: 0
Barnyardgrass plant response rating [2, 22]: 50
Plant response rating, Foxtail, Giant [3, 21]: 10
Plant response rating, Foxtail, Giant [3, 22]: 60
Plant response rating, Kochia [4, 21]: 0
Plant response rating, Kochia [4, 22]: 70
Plant response rating, Pigweed [5, 21]: 40
Plant response rating, Pigweed [5, 22]: 100
Plant response rating, Ragweed [6, 21]: 0
Plant response rating, Ragweed [6, 22]: 0
Ryegrass, Italian plant response rating [7, 23]: 0
Ryegrass, Italian plant response rating [7, 24]: 0
Barnyardgrass plant response rating ([8]; 31 g ai/ha): 0
Barnyardgrass plant response rating ([8]; 125 g ai/ha): 30
Blackgrass plant response rating [9, 23]: 0
Blackgrass plant response rating [9, 24]: 10
Corn plant response rating [10, 23]: 20
Corn plant response rating [10, 24]: 20
Galium plant response rating [11, 23]: 70
Galium plant response rating [11, 24]: 100
Foxtail, Giant plant response rating [12, 23]: 10
Foxtail, Giant plant response rating [12, 24]: 70
Kochia plant response rating [13, 23]: 70
Kochia plant response rating [13, 24]: 100
Pigweed plant response rating [14, 23]: 90
Pigweed plant response rating [14, 24]: 100
Ragweed plant response rating [15, 23]: 0
Ragweed plant response rating [15, 24]: 0
Wheat plant response rating [16, 23]: 0
Wheat plant response rating [16, 24]: 0
Plant response rating, Barnyardgrass [17]: 0
Plant response rating, Ducksalad [18]: 95
Plant response rating, Rice [19]: 20
Plant response rating, Sedge, Umbrella [20]: 95

N#Cc1cccc(Oc2ncc(Cl)cn2)c1C(=O)CCCC(F)(F)F [Compound 133]
Plant response rating, Ryegrass, Italian [1, 21]: 0
Plant response rating, Ryegrass, Italian [1, 22]: 0
Plant response rating, Barnyardgrass [2, 21]: 0
Plant response rating, Barnyardgrass [2, 22]: 30
Plant response rating, Foxtail, Giant [3, 21]: 0
Plant response rating, Foxtail, Giant [3, 22]: 90
Plant response rating, Kochia [4, 21]: 0
Plant response rating, Kochia [4, 22]: 10
Plant response rating, Pigweed [5, 21]: 70
Plant response rating, Pigweed [5, 22]: 100
Plant response rating, Ragweed [6, 21]: 0
Plant response rating, Ragweed [6, 22]: 0
Ryegrass, Italian plant response rating [7, 25]: 0
Ryegrass, Italian plant response rating [7, 24]: 0
Barnyardgrass plant response rating ([8]; 31 g ai/ha): 10
Barnyardgrass plant response rating ([8]; 125 g ai/ha): 30
Blackgrass plant response rating [9, 25]: 0
Blackgrass plant response rating [9, 24]: 0
Corn plant response rating [10, 25]: 0
Corn plant response rating [10, 24]: 20
Galium plant response rating [11, 25]: 30
Galium plant response rating [11, 24]: 50
Foxtail, Giant plant response rating [12, 25]: 10
Foxtail, Giant plant response rating [12, 24]: 30
Kochia plant response rating [13, 25]: 0
Kochia plant response rating [13, 24]: 20
Pigweed plant response rating [14, 25]: 30
Pigweed plant response rating [14, 24]: 50
Ragweed plant response rating [15, 25]: 0
Ragweed plant response rating [15, 24]: 0
Wheat plant response rating [16, 25]: 0
Wheat plant response rating [16, 24]: 0
Plant response rating, Barnyardgrass [17]: 0
Plant response rating, Ducksalad [18]: 0
Plant response rating, Rice [19]: 30
Plant response rating, Sedge, Umbrella [20]: 0

N#Cc1cccc(Oc2ncc(Cl)cn2)c1COCCCC(F)(F)F [Compound 81]
Plant response rating, Ryegrass, Italian [1, 21]: 0
Ryegrass, Italian plant response rating [1, 22]: 20
Plant response rating, Barnyardgrass [2, 21]: 10
Barnyardgrass plant response rating [2, 22]: 90
Plant response rating, Foxtail, Giant [3, 21]: 30
Foxtail, Giant plant response rating [3, 22]: 100
Plant response rating, Kochia [4, 21]: 0
Kochia plant response rating [4, 22]: 90
Plant response rating, Pigweed [5, 21]: 100
Pigweed plant response rating [5, 22]: 100
Plant response rating, Ragweed [6, 21]: 0
Ragweed plant response rating [6, 22]: 0
Ryegrass, Italian plant response rating [7, 23]: 0
Ryegrass, Italian plant response rating [7, 24]: 10
Barnyardgrass plant response rating ([8]; 31 g ai/ha): 10
Barnyardgrass plant response rating (0 to 100 scale) ([8]; 125 g ai/ha): 50
Blackgrass plant response rating [9, 23]: 10
Blackgrass plant response rating (0 to 100 scale) [9, 26]: 40
Corn plant response rating [10, 23]: 10
Corn plant response rating (0 to 100 scale) [10, 26]: 40
Galium plant response rating [11, 23]: 30
Galium plant response rating (0 to 100 scale) [11, 26]: 80
Foxtail, Giant plant response rating [12, 23]: 20
Foxtail, Giant plant response rating (0 to 100 scale) [12, 26]: 70
Kochia plant response rating [13, 23]: 30
Kochia plant response rating [13, 24]: 50
Pigweed plant response rating [14, 23]: 50
Pigweed plant response rating [14, 24]: 100
Ragweed plant response rating [15, 23]: 0
Ragweed plant response rating [15, 24]: 10
Wheat plant response rating [16, 23]: 0
Wheat plant response rating [16, 24]: 0
Plant response rating, Barnyardgrass [17]: 45
Plant response rating, Ducksalad [18]: 100
Plant response rating, Rice [19]: 0
Plant response rating, Sedge, Umbrella [20]: 100

O=C(OCCC(F)(F)F)c1c(OCC(F)(F)F)cccc1Oc1ncc(Cl)cn1 [Compound 117]
Plant response rating, Ryegrass, Italian [1, 21]: 0
Plant response rating, Ryegrass, Italian [1, 22]: 0
Plant response rating, Barnyardgrass [2, 21]: 0
Plant response rating, Barnyardgrass [2, 22]: 0
Plant response rating, Foxtail, Giant [3, 21]: 0
Plant response rating, Foxtail, Giant [3, 22]: 20
Plant response rating, Kochia [4, 21]: 0
Plant response rating, Kochia [4, 22]: 0
Plant response rating, Pigweed [5, 21]: 0
Plant response rating, Pigweed [5, 22]: 30
Plant response rating, Ragweed [6, 21]: 0
Plant response rating, Ragweed [6, 22]: 0
Ryegrass, Italian plant response rating [7, 23]: 0
Ryegrass, Italian plant response rating [7, 24]: 0
Barnyardgrass plant response rating ([8]; 31 g ai/ha): 0
Barnyardgrass plant response rating ([8]; 125 g ai/ha): 10
Blackgrass plant response rating [9, 23]: 0
Blackgrass plant response rating [9, 24]: 10
Corn plant response rating [10, 23]: 10
Corn plant response rating [10, 24]: 10
Galium plant response rating [11, 23]: 60
Galium plant response rating [11, 24]: 100
Foxtail, Giant plant response rating [12, 23]: 0
Foxtail, Giant plant response rating [12, 24]: 10
Kochia plant response rating [13, 23]: 20
Kochia plant response rating [13, 24]: 50
Pigweed plant response rating [14, 23]: 30
Pigweed plant response rating [14, 24]: 70
Ragweed plant response rating [15, 23]: 0
Ragweed plant response rating [15, 24]: 20
Wheat plant response rating [16, 23]: 0
Wheat plant response rating [16, 24]: 0
Plant response rating, Barnyardgrass [17]: 0
Plant response rating, Ducksalad [18]: 20
Plant response rating, Rice [19]: 0
Plant response rating, Sedge, Umbrella [20]: 60

O=C(OCC(F)(F)C(F)(F)F)c1c(F)cccc1Oc1ncc(Cl)cn1 [Compound 5]
Plant response rating, Ryegrass, Italian [1, 21]: 0
Ryegrass, Italian plant response rating [1, 22]: 0
Plant response rating, Barnyardgrass [2, 21]: 0
Barnyardgrass plant response rating [2, 22]: 0
Plant response rating, Foxtail, Giant [3, 21]: 0
Foxtail, Giant plant response rating [3, 22]: 0
Plant response rating, Kochia [4, 21]: 0
Kochia plant response rating [4, 22]: 0
Plant response rating, Pigweed [5, 21]: 0
Pigweed plant response rating [5, 22]: 0
Plant response rating, Ragweed [6, 21]: 0
Ragweed plant response rating [6, 22]: 0
Ryegrass, Italian plant response rating [7, 23]: 0
Ryegrass, Italian plant response rating (0 to 100 scale) [7, 26]: 0
Barnyardgrass plant response rating ([8]; 31 g ai/ha): 0
Barnyardgrass plant response rating (0 to 100 scale) ([8]; 125 g ai/ha): 0
Blackgrass plant response rating [9, 23]: 0
Blackgrass plant response rating (0 to 100 scale) [9, 26]: 0
Corn plant response rating [10, 23]: 0
Corn plant response rating (0 to 100 scale) [10, 26]: 0
Galium plant response rating [11, 23]: 0
Galium plant response rating (0 to 100 scale) [11, 26]: 0
Foxtail, Giant plant response rating [12, 23]: 0
Foxtail, Giant plant response rating (0 to 100 scale) [12, 26]: 0
Kochia plant response rating [13, 23]: 0
Kochia plant response rating (0 to 100 scale) [13, 26]: 0
Pigweed plant response rating [14, 23]: 0
Pigweed plant response rating (0 to 100 scale) [14, 26]: 0
Ragweed plant response rating [15, 23]: 0
Ragweed plant response rating (0 to 100 scale) [15, 26]: 0
Wheat plant response rating [16, 23]: 0
Wheat plant response rating (0 to 100 scale) [16, 26]: 0
Plant response rating, Barnyardgrass [17]: 0
Plant response rating, Ducksalad [18]: 0
Plant response rating, Rice [19]: 0
Plant response rating, Sedge, Umbrella [20]: 0
